# Source: PMC10424242, “Macrocyclic Peptidomimetic Plasmepsin X Inhibitors with Potent In Vitro and In Vivo Antimalarial Activity” (Journal of Medicinal Chemistry, 2023)
# “Also recorded” adds a separate entry of the source. Read-outs that look alike come from different tables or passages of the source.
# Assays:
# [1] = tested on: maturation of the PMX substrate SUB1 (p54 to p47); test: Western blot of SUB1 maturation in treated schizonts; assay type: cell-based, P. falciparum; details: 20 nM, 44 h
# Method: This phenotype is characteristic of the inhibition of PMX.
# (§1) Synchronous parasite cultures were cultured from ring to schizont stage (∼44 h) in the presence of DMSO alone (0.04% v/v; control) or macrocycle compounds (20 nM final concentration). Schizonts were isolated by Percoll enrichment (still in the presence of the test compound), then either immediately frozen or further incubated in the absence of the drug but in the presence of C2 (1 μM) for 1 h at 37°C in the absence of added RBCs or for 3.5 h in the presence of added RBCs. The schizonts without added RBCs were then frozen too, and all schizont samples were then thawed into CHAPS–urea extraction buffer, subjected to sodium dodecyl sulfate-polyacrylamide gel electrophoresis (SDS-PAGE), and analyzed by Western blot, probing with antibodies against SUB1 or RAP1. For schizonts cultured in the presence of added RBCs, ring formation was assessed in two ways: cultures were examined microscopically by Giemsa stain of thin films and were also fixed with glutaraldehyde and processed for quantification of ring formation by flow cytometry as described above.
# [2] = Pharmacokinetics in mice (plasma, UPLC/MS/MS); assay type: in vivo; details: female, NMRI, mouse, po, p.os 50 mg/kg
# Method: Animals were weighed on the day of the treatment (before treatment) to calculate the required amount of compound for the corresponding dose. For tolerability and PK studies, the mice were dosed via a peroral (PO) bolus administration (volume 10 mL/kg).
# For the pharmacokinetics experiment, blood samples were collected in tubes containing heparin. […] Tubes were centrifuged at +4 °C 10,000g for 3 min. Plasma samples were collected and stored at −20 °C until analysis.
# Concentrations of VAD259 in mouse plasma were measured by ultra-performance liquid chromatography–tandem mass spectrometry using Waters Acquity UPLC H-class chromatograph coupled to the Waters Xevo TQ-S micro mass spectrometer using the Waters Acquity UPLC BEH-C18 column (2.1 mm × 50 mm, 1.7 μm). Mobile phase A was 0.1% aqueous formic acid, and mobile phase B was acetonitrile.
# The mass spectrometer was operated in positive electrospray ionization mode (ESI+), and data acquisition was performed in multiple reaction monitoring (MRM) modes with ionization parameters as follows: capillary energy of 3.0 kV, cone voltage of 25 V, and collision energy of 20 eV.
# Blood plasma samples were processed using plasma protein precipitation. Then, 20 μL of plasma was mixed with 300 μL of acetonitrile/methanol (3:1/v:v) mixture, and the sample was centrifuged at 1000g for 10 min. The supernatant was further diluted 3 times with 0.1% aqueous formic acid and subjected to UPLC/MS/MS analysis.
# [3] = molecular target: cathepsin D (CatD) (Homo sapiens, UniProt P07339); test: FRET-based CatD inhibition assay (selectivity counter screen); assay type: biochemical
# Method: (§2) A fluorescence resonance energy transfer (FRET)-based assay was performed to assess the ability of the compounds to inhibit PMIV, CatD, and BACE1. Serial dilutions of test compounds were dispensed in a white 96-well plate. […] The mixture was incubated for 20 min at 37 °C. […] IC50 values were calculated with GraphPad Prism 8.0 using the nonlinear regression, variable slope (four parameters). Compounds were tested in triplicate.
# [4] = molecular target: PMIV (Plasmodium falciparum, UniProt Q8IM16); test: FRET-based PMIV inhibition assay; assay type: biochemical, P. falciparum
# Method: as §2
# [5] = tested on: P. falciparum Pf3D7^0087/N9; test: In vivo efficacy against P. falciparum in the TAD PfalcHuMouse model
# Method: Therapeutic efficacy studies were performed at TAD using a standardized humanized mouse model of P. falciparum malaria[31] with modifications.[34] […] The volume of injections was 1 and 0.7 mL for i.p. or i.v. inoculation, respectively.
# The inoculum was obtained from peripheral blood of CO2-euthanized donor mice harboring 5–10% parasitemia.
# Before drug administration, each infected mouse was randomly assigned to its corresponding treatment. […] The treatment was administered by oral gavage with 20G straight reusable feeding needles (Fine Science Tools GmbH) at 10 mL·kgbodyweight^–1 unless otherwise stated.
# Parasitemia was measured in serial 2 μL of samples of tail blood by flow cytometry and expressed as the % of parasitized erythrocytes with respect to the total erythrocytes in circulation.
# The clearance of parasitized erythrocytes from the peripheral blood of mice was assessed by measuring the parasite reduction ratio (PRR) calculated as the ratio between parasitemia at Day n + 2 divided by parasitemia at Day n for each individual of the study.
# The parasiticidal effect of drugs in vivo was assessed by measuring the day of recrudescence (DoR) as described.[34] In short, DoR was defined as the day at which parasitemia after drug treatment reached the % parasitemia at treatment inception. Drug-treated mice were deemed cured if there was no detectable parasitemia 60 days after treatment.
# [6] = tested on: P. falciparum schizonts; test: Washout assay, schizont rupture and new ring formation; assay type: cell-based; details: 20 nM ∼44 h, […] with added RBCs
# Method: The schizont cultures lacking added RBCs were supplemented with compound C2, which blocks the discharge of exonemes, the parasite secretory organelles in which PMX and SUB1 are stored before egress. The schizonts without added RBCs were sampled for Western blot analysis, while the schizont cultures containing RBCs were examined by microscopy and flow cytometry after a further 4 h in culture to quantify schizont rupture and new ring formation.
# as §1
# [7] = molecular target: BACE1 (Homo sapiens, UniProt P56817); test: FRET-based BACE1 inhibition assay (selectivity counter screen); assay type: biochemical
# Method: as §2
# [8] = Tolerability testing in mice; assay type: in vivo, NMRI female mice; details: p.os 50 mg/kg up to 24 h, 0–6 score system
# Method: NMRI female mice (10–12 weeks old, 29–32 g) were obtained from ENVIGO (The Netherlands) and housed prior to treatment under standard conditions (acclimatization period of 1 week, 21–23 °C, 12-h light/dark cycle, relative humidity 45–65%) with unlimited access to food (R70 diet from Lantmännen) and water. The experimental procedures were performed in accordance with the guidelines of the European Community and local laws and policies (Directive 2010/63/EU), and all of the procedures were approved by Food and Veterinary Service, Riga, Latvia. Animals were weighed on the day of the treatment (before treatment) to calculate the required amount of compound for the corresponding dose. For tolerability and PK studies, the mice were dosed via a peroral (PO) bolus administration (volume 10 mL/kg). Toxicity signs were scored 0–2, 5, 10, 15, 30, 60, 120, 240 min, and 24 h after administration using a widely used 0–6 score system.
# PMIV, sequence (Q8IM16 122-449): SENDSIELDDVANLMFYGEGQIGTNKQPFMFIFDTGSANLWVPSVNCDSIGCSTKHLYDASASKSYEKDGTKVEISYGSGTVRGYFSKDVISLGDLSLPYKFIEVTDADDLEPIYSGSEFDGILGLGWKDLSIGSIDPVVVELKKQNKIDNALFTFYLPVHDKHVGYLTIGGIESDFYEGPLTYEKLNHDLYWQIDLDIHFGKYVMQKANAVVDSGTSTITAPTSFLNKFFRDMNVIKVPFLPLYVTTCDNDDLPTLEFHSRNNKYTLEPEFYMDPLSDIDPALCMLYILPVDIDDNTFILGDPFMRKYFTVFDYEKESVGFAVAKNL
# BACE1, sequence (P56817 46-501): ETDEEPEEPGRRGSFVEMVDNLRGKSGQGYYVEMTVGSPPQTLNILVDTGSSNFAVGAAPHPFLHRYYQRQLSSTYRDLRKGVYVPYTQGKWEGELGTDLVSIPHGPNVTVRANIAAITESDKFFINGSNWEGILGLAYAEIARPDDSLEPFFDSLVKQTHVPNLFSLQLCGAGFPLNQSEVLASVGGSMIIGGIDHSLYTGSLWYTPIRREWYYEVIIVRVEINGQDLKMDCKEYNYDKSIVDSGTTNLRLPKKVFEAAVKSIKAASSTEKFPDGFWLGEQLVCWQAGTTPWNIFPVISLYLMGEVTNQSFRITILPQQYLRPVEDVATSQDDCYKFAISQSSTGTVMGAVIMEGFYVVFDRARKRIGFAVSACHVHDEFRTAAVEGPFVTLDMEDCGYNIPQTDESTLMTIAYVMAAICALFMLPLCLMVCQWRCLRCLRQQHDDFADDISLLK
# cathepsin D (CatD), sequence (P07339 65-412): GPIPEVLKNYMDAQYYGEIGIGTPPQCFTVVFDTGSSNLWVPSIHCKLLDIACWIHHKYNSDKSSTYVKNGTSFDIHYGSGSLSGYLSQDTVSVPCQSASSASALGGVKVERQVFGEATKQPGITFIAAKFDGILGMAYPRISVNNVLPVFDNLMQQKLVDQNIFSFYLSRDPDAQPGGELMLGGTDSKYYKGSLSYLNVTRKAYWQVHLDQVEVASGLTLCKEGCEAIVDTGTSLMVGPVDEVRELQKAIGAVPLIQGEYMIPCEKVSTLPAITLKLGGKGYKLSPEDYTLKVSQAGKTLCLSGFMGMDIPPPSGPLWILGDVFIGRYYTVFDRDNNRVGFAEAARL
smiles,measurement,setting,value
"CCCN1CCCCCc2cccc(c2)C[C@@H]([C@H](O)CNC(C)(C)c2cccc(OC)c2)NC(=O)c2cccc(c2)C1=O [7k, (S)-4-((R)-1-Hydroxy-2-((2-(3-methoxyphenyl)propan-2-yl)amino)ethyl)-12-propyl-3,12-diaza-1,6(1,3)-dibenzenacyclotridecaphane-2,13-dione]",maturation of SUB1 (p54 to p47),[1],clear defect in maturation of the PMX substrate SUB1
same,AUC(0-t) at 6 h,[2],0.218 µg·h/mL
same,Cmax at 6 h,[2],0.064 µg/mL
same,Tmax at 6 h,[2],60 min
same,half-life at 6 h,[2],53 min
same,AUC(0-inf) at 6 h,[2]; read-out: AUC0-inf_obs,0.222 µg·h/mL
same,IC50,[3],330 ± 20 nM
same,IC50,"[4]; Table 3, read-out: PMIV, nM (as listed in Table 3)",17 ± 2 nM
same,improvement of PMIV inhibitory potency,[4]; compared to 7a,3 fold
same,IC50,"[4]; read-out: PMIV, nM (IC50)",17 ± 2 nM
same,clearance of parasitemia from peripheral blood,"[5]; 40 mg/kg p.o., UID, BID or TID",cleared parasitemia from the peripheral blood in a dose-dependent manner
same,parasite clearance rate compared with chloroquine,[5]; chloroquine at 10 mg/kg for 2 days in the same system,comparable to those produced by chloroquine at 10 mg/kg for 2 days
same,parasite killing in vivo (DoR versus exposure) compared with chloroquine,"[5]; comparable treatment regimens, chloroquine historical data",as potent as chloroquine
same,distribution of parasite stages in peripheral blood,"[5]; day 3 of the assay, flow cytometry and microscopy",relative accumulation of circulating mature schizonts compared to untreated controls
same,effect on parasite burden,"[5]; three times a day for 4 days at 40 mg/kg, oral",eliminated P. falciparum from peripheral blood at a rate comparable to chloroquine single-dose administration for 2 days (10 mg/kg)
same,new ring formation after washout,[6],minimal rings were produced
same,IC50,[7],2030 ± 100 nM
same,tolerability,[8],No adverse effects were observed; also recorded: no toxic effect (score 0)
